Measurements as given in publication PMC8550792, “Evolution of kinase polypharmacology across HSP90 drug discovery” (Cell Chemical Biology, 2021).

Experiments:
Assay in all cases: biochemical
Type in all cases: biochemical
382 unique human kinases [1] = biological target: T1, 382 unique human kinases (Homo sapiens, UniProt P21802, R612T); settings: FGFR2 (R612T), 10 uM; for remaining activity at 10 µM: read-out: % Enzyme Activity (relative to DMSO controls)
T1 construct: purchased Reaction Biology (HotSpot contract assay)
T1 sequence (P21802 22-821 R612T): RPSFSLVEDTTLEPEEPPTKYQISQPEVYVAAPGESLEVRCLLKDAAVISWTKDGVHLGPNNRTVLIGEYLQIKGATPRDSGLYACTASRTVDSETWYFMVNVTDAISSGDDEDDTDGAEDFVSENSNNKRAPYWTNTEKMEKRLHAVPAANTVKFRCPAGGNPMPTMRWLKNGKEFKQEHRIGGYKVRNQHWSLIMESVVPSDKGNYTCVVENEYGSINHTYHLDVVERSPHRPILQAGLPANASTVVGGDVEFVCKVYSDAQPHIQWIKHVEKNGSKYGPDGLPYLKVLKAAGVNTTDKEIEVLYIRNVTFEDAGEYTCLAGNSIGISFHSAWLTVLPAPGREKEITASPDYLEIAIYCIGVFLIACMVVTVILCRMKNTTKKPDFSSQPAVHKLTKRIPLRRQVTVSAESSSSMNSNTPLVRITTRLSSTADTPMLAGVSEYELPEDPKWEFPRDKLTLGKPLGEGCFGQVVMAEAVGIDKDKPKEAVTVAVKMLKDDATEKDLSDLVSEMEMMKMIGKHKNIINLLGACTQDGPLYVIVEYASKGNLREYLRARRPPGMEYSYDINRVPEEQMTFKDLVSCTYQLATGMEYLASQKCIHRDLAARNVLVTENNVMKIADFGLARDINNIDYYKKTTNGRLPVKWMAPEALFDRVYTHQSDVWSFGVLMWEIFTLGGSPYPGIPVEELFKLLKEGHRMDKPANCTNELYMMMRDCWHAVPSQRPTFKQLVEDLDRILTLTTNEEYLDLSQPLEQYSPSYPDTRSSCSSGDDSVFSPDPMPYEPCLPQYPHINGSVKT

382 unique human kinases [2] = biological target: T2, 382 unique human kinases (Homo sapiens, UniProt O00311); settings: kinase CDC7/DBF4, compound 10 uM; for remaining activity at 10 µM: read-out: % Enzyme Activity (relative to DMSO controls)
T2 construct: purchased Reaction Biology (HotSpot contract assay)
T2 sequence (O00311 whole entry): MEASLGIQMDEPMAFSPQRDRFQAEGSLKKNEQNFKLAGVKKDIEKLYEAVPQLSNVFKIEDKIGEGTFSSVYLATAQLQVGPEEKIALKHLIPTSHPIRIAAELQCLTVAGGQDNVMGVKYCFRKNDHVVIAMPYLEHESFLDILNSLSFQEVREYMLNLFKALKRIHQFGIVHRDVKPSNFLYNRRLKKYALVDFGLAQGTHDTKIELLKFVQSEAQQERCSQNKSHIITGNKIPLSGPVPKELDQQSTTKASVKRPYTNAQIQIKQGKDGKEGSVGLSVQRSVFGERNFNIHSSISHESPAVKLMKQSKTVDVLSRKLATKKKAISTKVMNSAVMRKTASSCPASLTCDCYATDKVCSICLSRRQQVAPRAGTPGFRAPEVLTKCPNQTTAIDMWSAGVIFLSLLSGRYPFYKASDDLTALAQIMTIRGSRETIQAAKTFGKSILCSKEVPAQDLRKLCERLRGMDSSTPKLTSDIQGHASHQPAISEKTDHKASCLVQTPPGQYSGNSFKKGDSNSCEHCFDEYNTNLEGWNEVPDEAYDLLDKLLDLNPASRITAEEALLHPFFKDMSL

382 unique human kinases [3] = biological target: T3, 382 unique human kinases (Homo sapiens, UniProt Q8IU85); settings: kinase CAMK1d, compound 10 uM; for remaining activity at 10 µM: read-out: % Enzyme Activity (relative to DMSO controls)
T3 construct: purchased Reaction Biology (HotSpot contract assay)
T3 sequence (Q8IU85 whole entry): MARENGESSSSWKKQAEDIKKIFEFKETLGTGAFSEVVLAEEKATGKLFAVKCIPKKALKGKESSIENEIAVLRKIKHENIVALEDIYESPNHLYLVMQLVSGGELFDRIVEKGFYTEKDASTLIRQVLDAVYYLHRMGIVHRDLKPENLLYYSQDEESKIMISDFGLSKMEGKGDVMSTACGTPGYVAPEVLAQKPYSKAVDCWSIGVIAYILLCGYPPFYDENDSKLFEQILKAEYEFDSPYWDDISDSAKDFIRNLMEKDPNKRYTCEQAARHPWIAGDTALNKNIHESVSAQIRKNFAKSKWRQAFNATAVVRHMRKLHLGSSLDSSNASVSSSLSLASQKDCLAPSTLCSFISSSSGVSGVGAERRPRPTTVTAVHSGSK

382 unique human kinases [4] = biological target: T4, 382 unique human kinases (Homo sapiens, UniProt P07949, V804L); settings: RET (V804L), 10 uM; for remaining activity at 10 µM: read-out: % Enzyme Activity (relative to DMSO controls)
T4 construct: purchased Reaction Biology (HotSpot contract assay)
T4 sequence (P07949 29-1114 V804L): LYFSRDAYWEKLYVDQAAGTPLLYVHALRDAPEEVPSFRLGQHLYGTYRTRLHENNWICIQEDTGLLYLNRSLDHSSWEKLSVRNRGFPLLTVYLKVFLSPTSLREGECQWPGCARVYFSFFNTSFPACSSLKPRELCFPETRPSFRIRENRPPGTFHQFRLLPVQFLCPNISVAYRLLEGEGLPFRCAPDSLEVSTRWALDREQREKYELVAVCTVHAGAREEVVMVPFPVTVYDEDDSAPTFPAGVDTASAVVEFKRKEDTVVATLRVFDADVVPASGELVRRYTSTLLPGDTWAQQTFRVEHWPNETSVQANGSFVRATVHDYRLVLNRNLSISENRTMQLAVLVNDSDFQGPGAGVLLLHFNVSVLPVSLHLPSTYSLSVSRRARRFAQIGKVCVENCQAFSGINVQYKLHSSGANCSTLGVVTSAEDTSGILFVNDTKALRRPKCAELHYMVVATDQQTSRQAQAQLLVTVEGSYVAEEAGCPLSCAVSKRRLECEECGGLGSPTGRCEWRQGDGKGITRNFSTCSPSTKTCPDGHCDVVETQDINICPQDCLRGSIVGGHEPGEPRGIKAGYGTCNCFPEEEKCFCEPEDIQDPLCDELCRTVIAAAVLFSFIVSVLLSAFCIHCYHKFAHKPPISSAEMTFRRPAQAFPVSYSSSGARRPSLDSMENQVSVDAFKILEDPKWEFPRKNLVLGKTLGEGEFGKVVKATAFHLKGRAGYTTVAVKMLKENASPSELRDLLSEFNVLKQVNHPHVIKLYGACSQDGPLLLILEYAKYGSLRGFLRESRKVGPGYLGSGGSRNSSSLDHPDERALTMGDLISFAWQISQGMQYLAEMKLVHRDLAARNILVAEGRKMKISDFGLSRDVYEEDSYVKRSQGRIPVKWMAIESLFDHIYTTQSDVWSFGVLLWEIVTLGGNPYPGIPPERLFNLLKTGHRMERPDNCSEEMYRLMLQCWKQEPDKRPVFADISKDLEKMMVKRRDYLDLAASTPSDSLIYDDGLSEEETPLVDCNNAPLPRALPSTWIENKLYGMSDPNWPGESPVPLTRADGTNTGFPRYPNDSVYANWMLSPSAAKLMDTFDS

382 unique human kinases [5] = biological target: T5, 382 unique human kinases (Homo sapiens, UniProt P16591); settings: kinase FER, compound 10 uM; for remaining activity at 10 µM: read-out: % Enzyme Activity (relative to DMSO controls)
T5 construct: purchased Reaction Biology (HotSpot contract assay)

382 unique human kinases [6] = biological target: T6, 382 unique human kinases (Homo sapiens, UniProt P43403, Y319F); settings: ZAP70 (Y319F), 10 uM; for remaining activity at 10 µM: read-out: % Enzyme Activity (relative to DMSO controls)
T6 construct: purchased Reaction Biology (HotSpot contract assay)
T6 sequence (P43403 1-619 Y319F): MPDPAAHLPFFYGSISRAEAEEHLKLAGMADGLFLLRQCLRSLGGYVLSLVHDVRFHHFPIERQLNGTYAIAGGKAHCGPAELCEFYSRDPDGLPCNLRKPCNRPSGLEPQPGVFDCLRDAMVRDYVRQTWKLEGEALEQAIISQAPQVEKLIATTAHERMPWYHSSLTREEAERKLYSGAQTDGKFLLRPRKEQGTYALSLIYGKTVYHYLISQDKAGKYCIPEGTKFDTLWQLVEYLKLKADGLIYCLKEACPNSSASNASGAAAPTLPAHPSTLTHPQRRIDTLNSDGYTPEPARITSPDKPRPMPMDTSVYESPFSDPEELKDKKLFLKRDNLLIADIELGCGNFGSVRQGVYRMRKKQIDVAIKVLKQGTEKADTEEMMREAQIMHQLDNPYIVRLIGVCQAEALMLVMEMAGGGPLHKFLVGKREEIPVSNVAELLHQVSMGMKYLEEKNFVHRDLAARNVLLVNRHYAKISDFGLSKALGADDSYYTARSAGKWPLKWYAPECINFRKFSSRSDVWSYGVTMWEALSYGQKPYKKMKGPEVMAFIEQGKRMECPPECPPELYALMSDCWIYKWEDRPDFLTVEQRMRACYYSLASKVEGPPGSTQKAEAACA

382 unique human kinases [7] = biological target: T7, 382 unique human kinases (Homo sapiens, UniProt P15056, K601E); settings: BRAF (K601E), compound at 10 uM, duplicate values; for remaining activity at 10 µM: read-out: % Enzyme Activity (relative to DMSO controls)
T7 construct: purchased Reaction Biology (HotSpot contract assay)

382 unique human kinases [8] = biological target: T8, 382 unique human kinases (Homo sapiens, UniProt P15056, V600A); settings: BRAF (V600A), compound at 10 uM, duplicate values; for remaining activity at 10 µM: read-out: % Enzyme Activity (relative to DMSO controls)
T8 construct: purchased Reaction Biology (HotSpot contract assay)

382 unique human kinases [9] = biological target: T9, 382 unique human kinases (Homo sapiens, UniProt P36894); settings: ALK3/BMPR1A, 10 uM; for remaining activity at 10 µM: read-out: % Enzyme Activity (relative to DMSO controls)
T9 construct: purchased Reaction Biology (HotSpot contract assay)
T9 sequence (P36894 24-532): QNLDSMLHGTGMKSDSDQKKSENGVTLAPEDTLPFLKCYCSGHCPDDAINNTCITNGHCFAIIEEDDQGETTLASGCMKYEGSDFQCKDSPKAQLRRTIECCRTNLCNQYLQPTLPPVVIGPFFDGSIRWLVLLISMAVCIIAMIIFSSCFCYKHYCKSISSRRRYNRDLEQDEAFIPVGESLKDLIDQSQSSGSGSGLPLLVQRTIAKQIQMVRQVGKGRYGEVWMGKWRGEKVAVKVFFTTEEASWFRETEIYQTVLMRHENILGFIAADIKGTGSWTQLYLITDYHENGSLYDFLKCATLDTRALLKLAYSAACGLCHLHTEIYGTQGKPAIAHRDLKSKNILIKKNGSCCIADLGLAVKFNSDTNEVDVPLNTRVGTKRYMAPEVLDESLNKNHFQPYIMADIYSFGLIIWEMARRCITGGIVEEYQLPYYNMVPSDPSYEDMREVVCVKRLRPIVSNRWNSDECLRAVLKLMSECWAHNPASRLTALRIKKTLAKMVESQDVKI

382 unique human kinases [10] = biological target: T10, 382 unique human kinases (Homo sapiens, UniProt P22694); settings: kinase PKAcb, compound 10 uM; for remaining activity at 10 µM: read-out: % Enzyme Activity (relative to DMSO controls)
T10 construct: purchased Reaction Biology (HotSpot contract assay)

382 unique human kinases [11] = biological target: T11, 382 unique human kinases (Homo sapiens, UniProt Q00537); settings: kinase CDK17/cyclin Y (PCTK2), compound 10 uM; for remaining activity at 10 µM: read-out: % Enzyme Activity (relative to DMSO controls)
T11 construct: purchased Reaction Biology (HotSpot contract assay)
T11 sequence (Q00537 whole entry): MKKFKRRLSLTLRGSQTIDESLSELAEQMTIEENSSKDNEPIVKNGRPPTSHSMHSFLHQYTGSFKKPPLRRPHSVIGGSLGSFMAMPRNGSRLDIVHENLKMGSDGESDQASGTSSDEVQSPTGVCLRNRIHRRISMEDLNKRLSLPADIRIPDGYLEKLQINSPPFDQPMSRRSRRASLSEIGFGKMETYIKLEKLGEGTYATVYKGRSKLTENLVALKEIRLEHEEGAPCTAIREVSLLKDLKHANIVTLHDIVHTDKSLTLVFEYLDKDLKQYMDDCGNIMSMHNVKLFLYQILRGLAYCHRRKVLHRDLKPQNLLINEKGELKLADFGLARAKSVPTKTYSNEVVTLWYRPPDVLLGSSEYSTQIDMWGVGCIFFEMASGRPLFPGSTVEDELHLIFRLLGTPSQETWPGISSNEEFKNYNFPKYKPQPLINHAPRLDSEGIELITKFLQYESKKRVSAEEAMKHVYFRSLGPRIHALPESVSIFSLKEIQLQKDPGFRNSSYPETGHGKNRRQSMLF

382 unique human kinases [12] = biological target: T12, 382 unique human kinases (Homo sapiens, UniProt Q96PF2); settings: kinase TSSK2, compound 10 uM; for remaining activity at 10 µM: read-out: % Enzyme Activity (relative to DMSO controls)
T12 construct: purchased Reaction Biology (HotSpot contract assay)
T12 sequence (Q96PF2 1-358): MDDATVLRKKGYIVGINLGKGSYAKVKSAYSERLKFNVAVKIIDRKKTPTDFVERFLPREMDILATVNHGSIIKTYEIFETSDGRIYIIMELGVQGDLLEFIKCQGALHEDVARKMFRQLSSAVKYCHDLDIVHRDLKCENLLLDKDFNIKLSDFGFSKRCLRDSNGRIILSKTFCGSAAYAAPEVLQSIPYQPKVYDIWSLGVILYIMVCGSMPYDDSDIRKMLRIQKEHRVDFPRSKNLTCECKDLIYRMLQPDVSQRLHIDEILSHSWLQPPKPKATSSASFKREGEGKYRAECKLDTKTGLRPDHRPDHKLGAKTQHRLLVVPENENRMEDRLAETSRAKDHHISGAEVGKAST

382 unique human kinases [13] = biological target: T13, 382 unique human kinases (Homo sapiens, UniProt Q9P2K8); settings: kinase EIF2AK4, compound 10 uM; for remaining activity at 10 µM: read-out: % Enzyme Activity (relative to DMSO controls)
T13 construct: purchased Reaction Biology (HotSpot contract assay)

382 unique human kinases [14] = biological target: T14, 382 unique human kinases (Homo sapiens, UniProt Q9BYP7); settings: WNK3, 10 uM; for remaining activity at 10 µM: read-out: % Enzyme Activity (relative to DMSO controls)
T14 construct: purchased Reaction Biology (HotSpot contract assay)

382 unique human kinases [15] = biological target: T15, 382 unique human kinases (Homo sapiens, UniProt P53671); settings: LIMK2, [ATP] 5 µM, compound 10 uM; for remaining activity at 10 µM: read-out: % Enzyme Activity (relative to DMSO controls)
T15 construct: purchased Reaction Biology (HotSpot contract assay)
T15 sequence (P53671 whole entry): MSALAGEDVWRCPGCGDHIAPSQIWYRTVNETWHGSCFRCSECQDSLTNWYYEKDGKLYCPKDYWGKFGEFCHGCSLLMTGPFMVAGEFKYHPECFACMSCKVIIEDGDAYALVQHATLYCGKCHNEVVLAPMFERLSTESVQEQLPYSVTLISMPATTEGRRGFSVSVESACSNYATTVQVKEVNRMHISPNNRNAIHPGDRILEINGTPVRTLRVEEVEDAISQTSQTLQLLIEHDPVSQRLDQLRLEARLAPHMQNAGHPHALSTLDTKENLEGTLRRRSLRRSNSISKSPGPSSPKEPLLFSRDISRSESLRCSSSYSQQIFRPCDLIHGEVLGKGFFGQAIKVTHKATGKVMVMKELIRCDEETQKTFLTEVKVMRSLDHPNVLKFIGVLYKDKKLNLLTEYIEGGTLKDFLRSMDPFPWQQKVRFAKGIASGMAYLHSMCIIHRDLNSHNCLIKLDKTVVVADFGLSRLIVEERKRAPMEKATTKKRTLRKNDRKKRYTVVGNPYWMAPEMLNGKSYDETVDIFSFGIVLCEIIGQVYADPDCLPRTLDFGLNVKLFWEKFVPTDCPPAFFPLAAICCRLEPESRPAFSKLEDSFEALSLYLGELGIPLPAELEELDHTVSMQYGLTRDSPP

382 unique human kinases [16] = biological target: T16, 382 unique human kinases (Homo sapiens, UniProt Q9HCP0); settings: CK1g1, 10 uM; for remaining activity at 10 µM: read-out: % Enzyme Activity (relative to DMSO controls)
T16 construct: purchased Reaction Biology (HotSpot contract assay)
T16 sequence (Q9HCP0 whole entry): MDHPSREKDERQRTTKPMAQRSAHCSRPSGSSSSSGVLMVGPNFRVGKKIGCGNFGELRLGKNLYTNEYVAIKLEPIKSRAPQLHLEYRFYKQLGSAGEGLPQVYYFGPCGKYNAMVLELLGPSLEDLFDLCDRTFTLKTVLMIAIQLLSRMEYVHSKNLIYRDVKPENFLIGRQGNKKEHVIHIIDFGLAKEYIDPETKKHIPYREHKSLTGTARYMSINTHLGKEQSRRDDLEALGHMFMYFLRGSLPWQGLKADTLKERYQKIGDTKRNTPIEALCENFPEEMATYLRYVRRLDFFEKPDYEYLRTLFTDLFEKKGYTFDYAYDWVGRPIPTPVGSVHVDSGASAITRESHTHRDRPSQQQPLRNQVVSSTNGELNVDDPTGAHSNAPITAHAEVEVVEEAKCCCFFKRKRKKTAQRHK

382 unique human kinases [17] = biological target: T17, 382 unique human kinases (Homo sapiens, UniProt P07949, S891A); settings: RET (S891A), [ATP] 5 µM, compound 10 uM; for remaining activity at 10 µM: read-out: % Enzyme Activity (relative to DMSO controls)
T17 construct: purchased Reaction Biology (HotSpot contract assay)
T17 sequence (P07949 29-1114 S891A): as the sequence (P07949 29-1114 V804L) above, with L776V, S863A counted along it

382 unique human kinases [18] = biological target: T18, 382 unique human kinases (Homo sapiens, UniProt Q9UEE5); settings: DRAK1/STK17A, 10 uM; for remaining activity at 10 µM: read-out: % Enzyme Activity (relative to DMSO controls)
T18 construct: purchased Reaction Biology (HotSpot contract assay)
T18 sequence (Q9UEE5 1-414): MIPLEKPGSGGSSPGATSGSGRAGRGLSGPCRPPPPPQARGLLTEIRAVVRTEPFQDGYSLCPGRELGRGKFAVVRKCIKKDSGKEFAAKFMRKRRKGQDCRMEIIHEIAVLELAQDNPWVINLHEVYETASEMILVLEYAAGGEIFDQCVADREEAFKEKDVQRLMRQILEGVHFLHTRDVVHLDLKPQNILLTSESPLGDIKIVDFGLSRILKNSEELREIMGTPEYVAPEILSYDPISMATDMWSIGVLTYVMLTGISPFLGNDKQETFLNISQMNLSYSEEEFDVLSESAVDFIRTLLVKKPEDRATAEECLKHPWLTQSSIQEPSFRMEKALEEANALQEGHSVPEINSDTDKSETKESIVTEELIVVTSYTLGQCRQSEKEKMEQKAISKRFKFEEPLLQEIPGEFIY

Compound	remaining activity at 10 µM (382 unique human kinases [1]) [%]	remaining activity at 10 µM (382 unique human kinases [2]) [%]	remaining activity at 10 µM (382 unique human kinases [3]) [%]	remaining activity at 10 µM (382 unique human kinases [4]) [%]	remaining activity at 10 µM (382 unique human kinases [5]) [%]	remaining activity at 10 µM (382 unique human kinases [6]) [%]	remaining activity at 10 µM (382 unique human kinases [7]) [%]	remaining activity at 10 µM (382 unique human kinases [8]) [%]	remaining activity at 10 µM (382 unique human kinases [9]) [%]	remaining activity at 10 µM (382 unique human kinases [10]) [%]	remaining activity at 10 µM (382 unique human kinases [11]) [%]	remaining activity at 10 µM (382 unique human kinases [12]) [%]	remaining activity at 10 µM (382 unique human kinases [13]) [%]	remaining activity at 10 µM (382 unique human kinases [14]) [%]	remaining activity at 10 µM (382 unique human kinases [15]) [%]	remaining activity at 10 µM (382 unique human kinases [16]) [%]	remaining activity at 10 µM (382 unique human kinases [17]) [%]	remaining activity at 10 µM (382 unique human kinases [18]) [%]	further results
CC(C)c1cc(-c2n[nH]c(=O)n2-c2ccc3c(ccn3C)c2)c(O)cc1O [Ganetespib (STA9090)]	68.6	85.9	86.2	78.5	82.6	88.4	107	119	59.1	96.3	86.5	90.3	85.7						
CC(C)c1cc(-c2n[nH]c(=O)n2-c2ccc3c(ccn3C)c2)c(O)cc1O [Ganetespib]														98.1	46.7	95.4	20.2	106	
CCNC(=O)c1noc(-c2cc(C(C)C)c(O)cc2O)c1-c1ccc(CN2CCOCC2)cc1 [Luminespib (AUY-922)]	114	107	101	106	102	68.9	101	105	100	103	80.7	102	116						% Enzyme Activity (relative to DMSO controls) (382 unique human kinases [1]): 112.07%; % Enzyme Activity (relative to DMSO controls) (382 unique human kinases [2]): 105.45%; % Enzyme Activity (relative to DMSO controls) (382 unique human kinases [3]): 100.18%; % Enzyme Activity (relative to DMSO controls) (382 unique human kinases [4]): 104.44%; % Enzyme Activity (relative to DMSO controls) (382 unique human kinases [5]): 101.55%; % Enzyme Activity (relative to DMSO controls) (382 unique human kinases [6]): 63.89%; % Enzyme Activity (relative to DMSO controls) (382 unique human kinases [7]): 100.38%; % Enzyme Activity (relative to DMSO controls) (382 unique human kinases [8]): 102.37%; % Enzyme Activity (relative to DMSO controls) (382 unique human kinases [9]): 99.39%; % Enzyme Activity (relative to DMSO controls) (382 unique human kinases [10]): 100.86%; % Enzyme Activity (relative to DMSO controls) (382 unique human kinases [11]): 80.06%; % Enzyme Activity (relative to DMSO controls) (382 unique human kinases [12]): 101.80%; % Enzyme Activity (relative to DMSO controls) (382 unique human kinases [13]): 112.88%
CCNC(=O)c1noc(-c2cc(C(C)C)c(O)cc2O)c1-c1ccc(CN2CCOCC2)cc1 [Luminespib]														112	101	97.5	89.3	99.9	% Enzyme Activity (relative to DMSO controls) (382 unique human kinases [14]): 110.27%; % Enzyme Activity (relative to DMSO controls) (382 unique human kinases [15]): 100.64%; % Enzyme Activity (relative to DMSO controls) (382 unique human kinases [16]): 93.44%; % Enzyme Activity (relative to DMSO controls) (382 unique human kinases [17]): 88.26%; % Enzyme Activity (relative to DMSO controls) (382 unique human kinases [18]): 99.90%
